Experimental data reported in patent US20170022201A1, “MACROCYLIC PYRIDINE DERIVATIVES” (Janssen Pharmaceutica NV, priority 2014, published 2017).

Columns and labels:
eEF2K = target: T1, eEF2K (Homo sapiens, UniProt O00418); assay: EF2K cell-based assay (P-EF2 AlphaLISA, 2-deoxyglucose stimulated MCF10A cells); settings: 2.5 mM 2-deoxyglucose 4 h, phosphorylation of EF2 at Thr 56, pIC50 = -log IC50 (M); for IC50: read-out: eEF2K_C_PThr56 pIC50 (converted)
T1 construct: in the immortalized epithelial breast cell lines, MCF10A; host or cells: MCF10A immortalized breast epithelial cells
T1 sequence (O00418 1-725): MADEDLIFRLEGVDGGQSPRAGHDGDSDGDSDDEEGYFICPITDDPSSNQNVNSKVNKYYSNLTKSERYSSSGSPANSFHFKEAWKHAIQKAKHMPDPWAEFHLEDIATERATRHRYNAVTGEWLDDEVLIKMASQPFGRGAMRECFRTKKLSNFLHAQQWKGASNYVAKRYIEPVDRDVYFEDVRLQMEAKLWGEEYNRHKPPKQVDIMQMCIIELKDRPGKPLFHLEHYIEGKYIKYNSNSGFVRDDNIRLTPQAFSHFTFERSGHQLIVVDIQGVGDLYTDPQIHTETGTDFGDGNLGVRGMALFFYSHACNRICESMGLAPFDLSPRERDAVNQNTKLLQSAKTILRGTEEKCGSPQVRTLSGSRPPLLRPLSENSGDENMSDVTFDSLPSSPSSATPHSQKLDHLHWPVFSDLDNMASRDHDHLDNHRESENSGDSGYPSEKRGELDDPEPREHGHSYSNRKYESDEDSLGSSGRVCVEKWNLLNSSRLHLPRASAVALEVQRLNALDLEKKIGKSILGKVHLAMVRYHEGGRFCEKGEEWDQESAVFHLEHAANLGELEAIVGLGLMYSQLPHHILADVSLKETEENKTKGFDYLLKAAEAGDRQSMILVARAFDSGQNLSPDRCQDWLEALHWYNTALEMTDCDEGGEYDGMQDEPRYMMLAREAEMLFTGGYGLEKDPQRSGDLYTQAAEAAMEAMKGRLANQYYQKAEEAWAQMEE
Protocol: In this assay, 2.5 mM 2-deoxyglucose was used to deplete intracellular ATP and activate 5′ adenosine monophosphate-activated protein kinase (AMPK) in the immortalized epithelial breast cell lines, MCF10A. MCF 10A cells were purchased from ATCC (CRL-10317).
MCF10A cells are seeded at a density of 1.25×10^5 Cells/ml at 100 μl/well in a 96-well plate and incubated for 24 hours (37° C., 5% CO2). Compound is added for 1 hour, and cell are stimulated with 2.5 mM of 2-deoxy-glucose for 4 hours. Medium is then removed, and cells are lysed in an ice-cold buffer M-PER (Thermo Scientific, 78501), containing protease and phosphatase inhibitors. P-EF2 levels are determined in these lysates using the P-EF2 AlphaLISA described above.

PIK3C3 lipid kinase = PIK3C3 lipid kinase (Homo sapiens, UniProt Q8NEB9); assay: Biochemical Vps34 lipid kinase assay (ADP-Glo); settings: 20 μM ATP; for IC50: serial dilution 10 μM to 0.3 nM, pIC50 = -log IC50 (M); for remaining activity at 1 µM: 1 h, read-out: VPS34_1microM_%ofcntrl; for remaining activity at 1 µM / VPS34_1microM_%ofcntrl: single dose 1 μM, residual activity compared to control (DMSO)
Protocol: A non-radiometric kinase assay (ADP-Glo™ Assay, Promega, Madison, Wi, USA) was used for measuring the kinase activity of the PIK3C3 lipid kinase. All kinase assays were performed in 96-well half-area microtiter plates in a 25 μl reaction volume. The reaction cocktail was pipetted in 3 steps in the following order: • 10 μl of ATP solution (in assay buffer, see below) • 5 μl of test sample in 5% DMSO 10 μl of enzyme/substrate mixture
All lipid kinase assays contained 50 mM HEPES (4-(2-hydroxyethyl)-1-piperazineethanesulfonic acid)—NaOH, pH 7.5, 1 mM EGTA ((ethylene glycol tetraacetic acid), 100 mM NaCl, 0.03% CHAPS (3-[(3-Cholamidopropyl) dimethylammonio]-1-propanesulfonate), 2 mM DTT (Dithiothreitol), 20 μM ATP (corresponding to the apparent ATP-Km), kinase (7.6 nM) and substrate (50 μM). The assay for PIK3C3 additionally contained 3 mM MnCl2.
The reaction cocktails were incubated at 30° C. for 60 minutes. The reaction was stopped with 25 μl ADP-Glo™ reagent per well. Plates were incubated for 40 minutes at room temperature, followed by addition of 50 μl kinase detection reagent per well and incubation for 60 minutes at room temperature. Signal was determined with a microplate luminescence reader (Victor, Perkin Elmer). The assay was either performed using a single dose of compound (1 μM final concentration in the assay reaction) with resulting data expressed as residual activity compared to control (DMSO), or using a serial (half-log) dilution of compounds starting at 10 μM and down to 0.3 nM (final concentrations in the assay) with data expressed as the pIC50.

EF2K = target: T2, EF2K (Homo sapiens, UniProt O00418); assay: Biochemical EF2K lysate-based kinase assay (AlphaLISA p-eEF2 Thr56); settings: LN-229 cell lysates, 10 mM ATP, pH 6.6; pIC50 = -log IC50 (M); read-out: eEF2K_C_alphalisa pIC50 (converted)
T2 construct: host or cells: LN-229 glioblastoma cell lysate
T2 sequence (O00418 1-725): T1 sequence (O00418 1-725)
Source text: LN-229 cells were purchased from ATCC (CRL-2611); these are glioblastoma cells. Cell lysates from LN229 were used in this kinase assay to provide both the kinase and the substrate (EF2). The AlphaLISA p-eEF2 (Thr56) detection assay was developed using a sandwich assay format with two specific antibodies recognizing different epitopes of the target, including one antibody against the phosphorylation site of interest. One anti-eEF2 antibody was conjugated onto AlphaLISA Acceptor beads, while the second antibody was biotinylated and captured by streptavidin coated Donor beads.
Compound was mixed with LN-229 cell lysates in the presence of a kinase buffer (e.g. HEPES) at a pH of 6.6, containing 10 mM Mg^2+ (e.g. magnesium acetate) and 10 mM adenosine-tri-phosphate (ATP) and incubated at room temperature for 15 minutes. The kinase reaction was stopped with excess ethylenediaminetetraacetic acid disodium salt and the biotinylated-anti phospho eEF2 antibody (3 nM) was added for 1 hour. Then the anti-EF2 acceptor beads (10 μg/ml) as well as the streptavidin coated donor beads (20 μg/ml) were added for 1 hour, and the AlphaLISA signal was measured in an Envision instrument once, left overnight, and measured again for the final read.

Chain of PIK3C3 lipid kinase (Q8NEB9 whole entry): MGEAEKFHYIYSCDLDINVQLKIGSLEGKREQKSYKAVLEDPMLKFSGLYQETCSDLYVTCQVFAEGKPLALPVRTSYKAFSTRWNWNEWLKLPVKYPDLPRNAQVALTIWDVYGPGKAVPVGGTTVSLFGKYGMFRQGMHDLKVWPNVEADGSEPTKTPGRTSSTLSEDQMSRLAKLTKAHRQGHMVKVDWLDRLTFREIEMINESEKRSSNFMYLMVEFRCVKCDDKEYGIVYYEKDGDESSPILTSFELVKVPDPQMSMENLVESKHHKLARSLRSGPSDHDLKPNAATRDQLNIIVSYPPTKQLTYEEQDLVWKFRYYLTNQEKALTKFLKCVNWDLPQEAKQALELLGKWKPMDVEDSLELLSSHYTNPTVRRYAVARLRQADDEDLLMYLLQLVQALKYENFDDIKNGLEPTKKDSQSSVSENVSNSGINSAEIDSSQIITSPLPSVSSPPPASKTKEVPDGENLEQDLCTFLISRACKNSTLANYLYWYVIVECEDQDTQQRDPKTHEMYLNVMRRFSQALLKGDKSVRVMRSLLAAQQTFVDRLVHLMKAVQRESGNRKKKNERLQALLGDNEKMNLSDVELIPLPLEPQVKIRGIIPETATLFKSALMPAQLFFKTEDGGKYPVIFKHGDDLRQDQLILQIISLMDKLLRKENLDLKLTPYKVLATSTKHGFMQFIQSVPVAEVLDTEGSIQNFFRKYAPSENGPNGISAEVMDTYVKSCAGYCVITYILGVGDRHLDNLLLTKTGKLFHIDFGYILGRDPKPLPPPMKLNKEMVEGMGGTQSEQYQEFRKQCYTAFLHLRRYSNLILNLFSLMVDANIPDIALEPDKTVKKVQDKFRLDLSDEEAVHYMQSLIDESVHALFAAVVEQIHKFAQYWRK

Compound | IC50 (eEF2K) [M] | IC50 (PIK3C3 lipid kinase) [M] | IC50 (EF2K) [M] | remaining activity at 1 µM (PIK3C3 lipid kinase) [%] | eEF2K_C_PThr56 pIC50 (eEF2K) | VPS34_1microM_%ofcntrl (PIK3C3 lipid kinase) [%]
COCC1C(=O)NCCCNc2ncc(cn2)-c2ccnc(c2)Nc2cccc(c2)CN2CCN1CC2 (single isomer, unassigned) [Compound 6] | 1.12e-06 | 7.59e-07 | 4.47e-08 | – | – | –
CC1(C)CN2CCN1Cc1cccc(c1)Nc1cc(ccn1)-c1cnc(nc1)NCCCNC(=O)C2 [Compound 19] | 7.08e-07 | 2.88e-07 | 3.39e-08 | – | – | –
O=C1CN2CCN(Cc3cccc(c3)Nc3cc(ccn3)-c3cnc(nc3)NCCCN1)CC21CC1 [Compound 28] | > 1e-05 | > 1e-05 | 2.24e-05 | – | – | –
CN1CCCNC(=O)CN2CCN(CC2)Cc2cccc(c2)Nc2cc(ccn2)-c2ccc1nc2 [Compound 72] | 5.89e-06 | – | 2.88e-07 | 50.8 | – | –
O=C1CN2CCN(CC2)Cc2cccc(c2)Nc2cc(ccn2)-c2cnc(nc2)N2CC(O)CC2CCN1 (centres unmarked) [Compound 55] | 7.76e-07 | 5.5e-07 | 8.51e-09 | 29.6 | – | –
CNC(=O)C1CCNC(=O)CN2CCN(CC2)Cc2cccc(c2)Nc2cc(ccn2)-c2cnc(nc2)N1 (single isomer, unassigned) [Compound 124] | ~2.51e-05 | – | 3.98e-07 | 65.5 | – | –
CC1CN2CC(=O)NCCCNc3ncc(cn3)-c3ccnc(c3)Nc3cccc(c3)CN1C(C)C2 (centres unmarked) [Compound 34] | ~2.63e-06 | 3.63e-07 | 3.31e-07 | 23.5 | – | –
CNC(=O)c1ccc2cc1CN1CCN(CC1)CC(=O)NCCCNc1ncc(cn1)-c1ccnc(c1)N2 [Compound 9] | ~5.5e-06 | 1.66e-07 | 3.47e-08 | 7.1 | – | –
O=C1NCCCNc2ncc(cn2)-c2ccnc(c2)Nc2cccc(c2)CN2CCN(CC2)C12COC2 [Compound 10] | 1.48e-06 | 4.57e-07 | 2.19e-08 | 18.6 | – | –
NCCCOCC1CN2CCN1Cc1cccc(c1)Nc1cc(ccn1)-c1cnc(nc1)NCCCNC(=O)C2 (centres unmarked) [Compound 114] | > 1e-05 | 5.13e-07 | – | – | – | 29.15
O=C1CN2CCN(CC2)Cc2cccc(c2)Nc2cc(ccn2)-c2cnc(cn2)NCCCN1 [Compound 39] | 1.23e-05 | – | 2.75e-07 | 45.7 | – | –
O=C1CN2CCN(CC2)Cc2cccc(c2)Nc2cc(ccn2)-c2cnc(nc2)CN(C(=O)C2CC2)CCN1 [Compound 131] | 2.51e-06 | – | 6.17e-08 | 56.2 | – | –
O=C1CN2CCN(CC2)Cc2cccc(c2)Nc2cc(ccn2)-c2ccc(nn2)NCCCN1 [Compound 37] | > 3.02e-05 | – | ~2.45e-05 | 84.5 | – | –
O=C1NCCC2CC(O)CN2c2ncc(cn2)-c2ccnc(c2)Nc2cccc(c2)CN2CCN(CC2)C12CC2 (centres unmarked) [Compound 56] | 3.02e-07 | 2.63e-07 | 3.39e-09 | – | – | –
CC1CN2CCN1Cc1cccc(c1)Nc1cc(ccn1)-c1cnc(nc1)N1CC(O)CC1CCNC(=O)C2 (centres unmarked) [Compound 62] | 8.51e-08 | 1.23e-06 | 5.5e-09 | – | – | –
N#CC1CC2CCNC(=O)CN3CCN(CC3)Cc3cccc(c3)Nc3cc(ccn3)-c3cnc(nc3)N2C1 (centres unmarked) [Compound 77] | 3.8e-06 | – | 4.27e-08 | – | – | 86.17
O=C1NCCCNc2ncc(cn2)-c2ccnc(c2)Nc2cccc(c2)NC2CCN(CC2)C12CC2 [Compound 100] | 2.75e-06 | 3.55e-07 | 6.17e-08 | 14.9 | – | –
NCCCOCC1CN2CCN1Cc1cccc(c1)Nc1cc(ccn1)-c1cnc(nc1)NCCCNC(=O)C2 (centres unmarked) [Compound 148] | – | 9.33e-08 | – | – | <5 | 9.53

The next lines start with the values.

IC50 (eEF2K) [M] | IC50 (PIK3C3 lipid kinase) [M] | IC50 (EF2K) [M] | remaining activity at 1 µM (PIK3C3 lipid kinase) [%] | eEF2K_C_PThr56 pIC50 (eEF2K) | VPS34_1microM_%ofcntrl (PIK3C3 lipid kinase) [%] | Compound
> 1e-05 | – | 3.39e-07 | 68 | – | – | NS(=O)(=O)NC1CC2CCNC(=O)CN3CCN(CC3)Cc3cccc(c3)Nc3cc(ccn3)-c3cnc(nc3)N2C1 (centres unmarked) [Compound 86]
6.46e-07 | 2.34e-06 | 1.32e-08 | – | – | – | O=C1CN2CCN(Cc3cccc(c3)Nc3cc(ccn3)-c3cnc(nc3)N3CCCC3CCN1)C(CO)C2 (centres unmarked) [Compound 46]
– | 6.61e-08 | 1.07e-06 | 4.67 | <5 | – | O=C1CN2CC3CCC2CN3Cc2cccc(c2)Nc2cc(ccn2)-c2cnc(nc2)NCCCN1 (single isomer, unassigned) [Compound 26]
~2.95e-06 | 1.74e-06 | 9.55e-08 | – | – | – | CC1c2cccc(c2)Nc2cc(ccn2)-c2cnc(nc2)NCCCNC(=O)C2(CC2)N2CCN1CC2 (single isomer, unassigned) [Compound 23]
~2.51e-06 | 5.5e-07 | 4.79e-08 | – | – | – | O=C1NCCCNc2ncc(cn2)-c2ccnc(c2)Nc2cccc(c2)CN2CCN(CC2)C1CO (single isomer, unassigned) [Compound 2]
9.12e-06 | – | 6.46e-07 | 34.9 | – | – | CN1CCCNc2ncc(cn2)-c2ccnc(c2)Nc2cccc(c2)CN2CCN(CC2)CC1=O [Compound 13]
2.51e-06 | 4.47e-07 | 1.12e-07 | 22.4 | – | – | COCC1C(=O)NCCCNc2ncc(cn2)-c2ccnc(c2)Nc2cccc(c2)CN2CCN1CC2 (single isomer, unassigned) [Compound 5]
1.02e-06 | 3.24e-07 | 7.24e-08 | 21.6 | – | – | NC1CC2CCNC(=O)CN3CCN(CC3)Cc3cccc(c3)Nc3cc(ccn3)-c3cnc(nc3)N2C1 (centres unmarked) [Compound 84]
3.63e-07 | 4.9e-08 | 1.05e-08 | – | – | – | O=C1CN2CCN(CC2)Cc2cccc(c2F)Nc2cc(ccn2)-c2cnc(nc2)NCCCN1 [Compound 1]
> 1e-05 | > 1e-05 | 5.25e-06 | – | – | – | O=C1CN2CCN(CC2)C2(CC2)c2cccc(c2)Nc2cc(ccn2)-c2cnc(nc2)NCCCN1 [Compound 73]
3.55e-07 | 3.31e-07 | 6.76e-09 | – | – | – | O=C1NCCCNc2ncc(cn2)-c2ccnc(c2)Nc2cccc(c2)CN2CCN(CC2)C12CC2 [Compound 107]
